Our source for the ILSmax, Optimal dose and IC50 values is ChEMBL document CHEMBL1130788, “Synthesis and antitumor activity of leinamycin derivatives: modifications of C-8 hydroxy and C-9 keto groups” (Bioorg Med Chem Lett, 1998).

The subject of assay [1] is P388. The assay can be described thus: In vivo antitumor activity of compound was tested as maximal increase in life span (ILSmax) against lymphocytic leukemia P388 in mice. Type of assay: functional, Mus musculus.
Assay [2] deals with P388. Kind of assay: Compound was tested in vivo for antitumor activity against lymphocytic leukemia P388 in mice. Type of assay: functional, Mus musculus.
The test system of the next assay is HeLa. The assay can be described thus: In vitro antiproliferative activity against human uterine carcinoma HeLa S3 cells. Type of assay: functional, cell-based.

In general, IC50 refers to the concentration at which inhibition is half-maximal. Low values mean greater potency, high ones weaker potency.

Structures are written as SMILES.

As to `C/C1=C\[C@@H](OC2CCCCO2)C(=O)/C=C/C=C\c2csc(n2)[C@@H](C)NC(=O)C[C@@]2(CC1)[S+]([O-])SC(=O)[C@]2(C)O` (stereo partly drawn), in the assay with P388 [1], the ILSmax is given as 28%. In addition, the Optimal dose in the assay with P388 [2] worked out at 0.13 mg/kg. The 50% inhibitory concentration (IC50) in the assay with HeLa (Homo sapiens, HeLa) came to 1.3 nM.

Turning to `C/C1=C\[C@@H](O)C(O)/C=C/C=C\c2csc(n2)[C@@H](C)NC(=O)C[C@@]2(CC1)[S+]([O-])SC(=O)[C@]2(C)O` (stereo in doubt; 7-1), in the assay with HeLa (hela), it took 6200 nM to reach half-maximal inhibition (IC50).

With `CCOC(=O)O[C@@H]1/C=C(\C)CC[C@]2(CC(=O)N[C@H](C)c3nc(cs3)/C=C\C=C\C1=O)[S+]([O-])SC(=O)[C@]2(C)O` (stereo partly drawn), the ILSmax in the assay on P388 [1] came out at 31%. The Optimal dose in the assay with P388 [2] was found to be 2 mg/kg. The same molecule displayed a half-inhibitory concentration (IC50) in the assay on HeLa (Homo sapiens, HeLa) of 1.4 nM.

Turning to `C/C1=C\[C@@H](O)C(=N/OCc2ccccc2)/C=C/C=C\c2csc(n2)[C@@H](C)NC(=O)C[C@@]2(CC1)[S+]([O-])SC(=O)[C@]2(C)O` (stereo in doubt; 9c-1), in the assay on P388 [1], the ILSmax was 29%. The Optimal dose with P388 [2] came out at 8 mg/kg. Also, in the assay on HeLa (hela), the 50% inhibitory concentration (IC50) came out at 110 nM.

As for `CCCCCCCCCCCCCCCC(=O)O[C@@H]1/C=C(\C)CC[C@]2(CC(=O)N[C@H](C)c3nc(cs3)/C=C\C=C\C1=O)[S+]([O-])SC(=O)[C@]2(C)O` (stereo partly drawn), in the assay with P388 [1], the ILSmax is 37%. Besides, the Optimal dose with P388 [2] was 16 mg/kg. In the assay with HeLa (Homo sapiens, HeLa), the IC50 is 7700 nM.

Regarding `CC(=O)O[C@@H]1/C=C(\C)CC[C@]2(CC(=O)N[C@H](C)c3nc(cs3)/C=C\C=C\C1=O)[S+]([O-])SC(=O)[C@]2(C)OC(C)=O` (stereo partly drawn), the ILSmax with P388 [1] was 15%. This molecule also gave an Optimal dose in the assay on P388 [2] of 2 mg/kg. In addition, 780 nM corresponded to half-maximal inhibition with HeLa (Homo sapiens, HeLa) (IC50).

In the assay with P388 [1], `CC(=O)O[C@@H]1/C=C(\C)CC[C@]2(CC(=O)N[C@H](C)c3nc(cs3)/C=C\C=C\C1=O)[S+]([O-])SC(=O)[C@]2(C)O` (stereo partly drawn) registered an ILSmax of 34%. In the assay with P388 [2], this molecule registered an Optimal dose of 1 mg/kg. This molecule gave an IC50 with HeLa (Homo sapiens, HeLa) of 10 nM.

`C/C1=C\[C@@H](O)C(O)/C=C/C=C\c2csc(n2)[C@@H](C)NC(=O)C[C@@]2(CC1)[S+]([O-])SC(=O)[C@]2(C)O` (stereo in doubt; 7-2): it took 4900 nM to reach half-maximal inhibition in the assay on HeLa (Homo sapiens, HeLa) (IC50).

On to `CO\N=C1/C=C/C=C\c2csc(n2)[C@@H](C)NC(=O)C[C@@]2(CC/C(C)=C/[C@H]1O)[S+]([O-])SC(=O)[C@]2(C)O` (stereo in doubt; 9b-1), for which the half-maximal inhibitory concentration (IC50) in the assay on HeLa (hela) stood at 67 nM.

Consider `C/C1=C\[C@@H](OC(=O)Oc2ccc([N+](=O)[O-])cc2)C(=O)/C=C/C=C\c2csc(n2)[C@@H](C)NC(=O)C[C@@]2(CC1)[S+]([O-])SC(=O)[C@]2(C)O` (stereo partly drawn), for which the ILSmax with P388 [1] stood at 57%. In the assay on P388 [2], the Optimal dose turned out to be 2 mg/kg. In the assay on HeLa (Homo sapiens, HeLa), this molecule displayed an IC50 of 22 nM.

The molecule `C/C1=C\[C@@H](OC(=O)C2CCCCC2)C(=O)/C=C/C=C\c2csc(n2)[C@@H](C)NC(=O)C[C@@]2(CC1)[S+]([O-])SC(=O)[C@]2(C)O` (stereo partly drawn) came in with an ILSmax in the assay with P388 [1] of 49%. Further, the Optimal dose in the assay with P388 [2] amounted to 4 mg/kg. It took 58 nM to reach half-maximal inhibition in the assay on HeLa (Homo sapiens, HeLa) (IC50).

For `C/C1=C\[C@@H](O)C(=N/O)/C=C/C=C\c2csc(n2)[C@@H](C)NC(=O)C[C@@]2(CC1)[S+]([O-])SC(=O)[C@]2(C)O` (stereo partly drawn), in the assay on HeLa (Homo sapiens, HeLa), 910 nM corresponded to half-maximal inhibition (IC50).

Turning to `C/C1=C\[C@@H](OC(=O)c2ccccc2)C(=O)/C=C/C=C\c2csc(n2)[C@@H](C)NC(=O)C[C@@]2(CC1)[S+]([O-])SC(=O)[C@]2(C)O` (stereo partly drawn), the ILSmax in the assay with P388 [1] is on record as 36%. In the assay with P388 [2], this molecule had an Optimal dose of 2 mg/kg. The same molecule returned an IC50 in the assay on HeLa (Homo sapiens, HeLa) of 130 nM.

Consider `CO\N=C1/C=C/C=C\c2csc(n2)[C@@H](C)NC(=O)C[C@@]2(CC/C(C)=C/[C@H]1O)[S+]([O-])SC(=O)[C@]2(C)O` (stereo in doubt; 9b-2), for which the ILSmax in the assay with P388 [1] is 21%. Moreover, the Optimal dose in the assay on P388 [2] was found to be 2 mg/kg. This molecule also gave an IC50 in the assay with HeLa (Homo sapiens, HeLa) of 110 nM.

For the molecule `C/C1=C\[C@@H](OC(=O)c2cnc3ccccc3n2)C(=O)/C=C/C=C\c2csc(n2)[C@@H](C)NC(=O)C[C@@]2(CC1)[S+]([O-])SC(=O)[C@]2(C)O` (stereo partly drawn), the ILSmax in the assay with P388 [1] came to 44%. In the assay on P388 [2], the Optimal dose turned out to be 2 mg/kg. For the same molecule, the IC50 in the assay with HeLa (Homo sapiens, HeLa) was 6.8 nM.

As for `C/C1=C\[C@@H](O)C(=N/OCc2ccccc2)/C=C/C=C\c2csc(n2)[C@@H](C)NC(=O)C[C@@]2(CC1)[S+]([O-])SC(=O)[C@]2(C)O` (stereo in doubt; 9c-2), the ILSmax with P388 [1] is 31%. This molecule showed an Optimal dose in the assay on P388 [2] of 2 mg/kg. For the same molecule, it took 9.5 nM to reach half-maximal inhibition in the assay on HeLa (hela) (IC50).

For the molecule `C/C1=C\[C@@H](OC(=O)N2CCCCC2)C(=O)/C=C/C=C\c2csc(n2)[C@@H](C)NC(=O)C[C@@]2(CC1)[S+]([O-])SC(=O)[C@]2(C)O` (stereo partly drawn), half-maximal inhibition in the assay on HeLa (Homo sapiens, HeLa) (IC50) was put at 180 nM.

Turning to `C/C1=C\[C@@H](O)C(=O)/C=C/C=C\c2csc(n2)[C@@H](C)NC(=O)C[C@@]2(CC1)[S+]([O-])SC(=O)[C@]2(C)O` (stereo partly drawn) [LEINAMYCIN], in the assay on P388 [1], the ILSmax was determined as 57%. This molecule showed an Optimal dose with P388 [2] of 0.38 mg/kg. In the assay on HeLa (Homo sapiens, HeLa), this molecule registered an IC50 of 11 nM.

Molecule `COC1(OC)/C=C/C=C\c2csc(n2)[C@@H](C)NC(=O)C[C@@]2(CC/C(C)=C/[C@H]1O)[S+]([O-])SC(=O)[C@]2(C)O` (stereo partly drawn) displayed a 50% inhibitory concentration (IC50) in the assay with HeLa (Homo sapiens, HeLa) above 10000 nM.

The molecule `COC1(O[C@@H]2/C=C(\C)CC[C@]3(CC(=O)N[C@H](C)c4nc(cs4)/C=C\C=C\C2=O)[S+]([O-])SC(=O)[C@]3(C)O)CCOCC1` (stereo partly drawn) gave an ILSmax in the assay with P388 [1] of 35%. Besides, the Optimal dose in the assay on P388 [2] amounted to 2 mg/kg. In the assay with HeLa (Homo sapiens, HeLa), this molecule displayed a half-inhibitory concentration (IC50) of 18 nM.
